# Test results reported in PubChem BioAssay AID330 (DTP/NCI, 2004).
# Several values for one entry are separate records, joined by “and”; a condition that tells them apart may be missing. Identical values can stand only once. Toxic doses and inconclusive results are not listed.
# Test system: P388 leukemia ip, CD2F1 mice, survival T/C
# Experiment: NCI In Vivo Anticancer Drug Screen. Data for tumor model P388 Leukemia (intraperitoneal) in CD2F1 (CDF1) mice
# Details: endpoint: median survival time, higher = longer survival
# Method in brief: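 Mice carrying the transplanted tumor received test compound or vehicle. Survival was recorded in each group, and the value is the treated-group measurement divided by that of the vehicle-treated control group.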
# [1] = dose: 100.0 mg/kg/injection, schedule: Q04DX002 (ip), vehicle: saline with Tween-80
# [2] = dose: 200.0 mg/kg/injection, schedule: Q04DX002 (ip), vehicle: saline with Tween-80
# [3] = dose: 60.0 mg/kg/injection, schedule: Q01DX005 (ip), vehicle: saline with Tween-80
# [4] = dose: 120.0 mg/kg/injection, schedule: Q01DX005 (ip), vehicle: saline with Tween-80
# [5] = dose: 240.0 mg/kg/injection, schedule: Q01DX005 (ip), vehicle: saline with Tween-80
# [6] = dose: 100.0 mg/kg/injection, schedule: Q01DX009 (ip), vehicle: saline with Tween-80
# [7] = dose: 200.0 mg/kg/injection, schedule: Q01DX009 (ip), vehicle: saline with Tween-80
# [8] = dose: 400.0 mg/kg/injection, schedule: Q01DX009 (ip), vehicle: saline with Tween-80
# [9] = dose: 6.25 mg/kg/injection, schedule: Q01DX009 (ip), vehicle: saline
# [10] = dose: 12.5 mg/kg/injection, schedule: Q01DX009 (ip), vehicle: saline
# [11] = dose: 25.0 mg/kg/injection, schedule: Q01DX009 (ip), vehicle: saline
# [12] = dose: 50.0 mg/kg/injection, schedule: Q04DX002 (ip), vehicle: saline with Tween-80
# [13] = dose: 50.0 mg/kg/injection, schedule: Q01DX009 (ip), vehicle: saline
# [14] = dose: 100.0 mg/kg/injection, schedule: Q01DX009 (ip), vehicle: saline
# [15] = dose: 200.0 mg/kg/injection, schedule: Q01DX009 (ip), vehicle: saline
# [16] = dose: 100.0 mg/kg/injection, schedule: Q04DX003 (ip), vehicle: Klucel (hydroxypropylcellulose) (HPC)
# [17] = dose: 200.0 mg/kg/injection, schedule: Q04DX003 (ip), vehicle: Klucel (hydroxypropylcellulose) (HPC)
# [18] = dose: 50.0 mg/kg/injection, schedule: Q01DX005 (ip), vehicle: saline with Tween-80
# [19] = dose: 100.0 mg/kg/injection, schedule: Q01DX005 (ip), vehicle: saline with Tween-80
structure (smiles),measurement,setting,value
Cc1ccc2cccc(OC(=O)Nc3cccc(C(F)(F)F)c3)c2n1,T/C,"dose: 60.0 mg/kg/injection, schedule: Q01DX005 (ip), vehicle: Klucel (hydroxypropylcellulose) (HPC)",101 % of control
same,T/C,"dose: 120.0 mg/kg/injection, schedule: Q01DX005 (ip), vehicle: Klucel (hydroxypropylcellulose) (HPC)",107 % of control
same,T/C,"dose: 240.0 mg/kg/injection, schedule: Q01DX005 (ip), vehicle: Klucel (hydroxypropylcellulose) (HPC)",105 % of control
c1cc[n+](-[b-]2ccc3ccccc3c2)cc1,T/C,"dose: 100.0 mg/kg/injection, schedule: Q01DX001 (ip), vehicle: saline with Tween-80",94 % of control
same,T/C,"dose: 200.0 mg/kg/injection, schedule: Q01DX001 (ip), vehicle: saline with Tween-80",108 % of control
same,T/C,"dose: 400.0 mg/kg/injection, schedule: Q01DX001 (ip), vehicle: saline with Tween-80",99 % of control
COc1cc(CCN(C)C)c(C2C(=O)c3ccc4c(c3C2=O)OCO4)cc1OC (configuration not stated),T/C,"dose: 0.15 mg/kg/injection, schedule: Q01DX005 (ip), vehicle: Klucel (hydroxypropylcellulose) (HPC)",103 % of control
same,T/C,"dose: 0.3 mg/kg/injection, schedule: Q01DX005 (ip), vehicle: Klucel (hydroxypropylcellulose) (HPC)",104 % of control
same,T/C,"dose: 0.6 mg/kg/injection, schedule: Q01DX005 (ip), vehicle: Klucel (hydroxypropylcellulose) (HPC)",100 % of control
same,T/C,"dose: 1.2 mg/kg/injection, schedule: Q01DX005 (ip), vehicle: Klucel (hydroxypropylcellulose) (HPC)",99 % of control
Clc1ccc(-n2ccc(=N/N=C/c3ccc(Cl)c(Cl)c3)cc2)cc1,T/C,"dose: 25.0 mg/kg/injection, schedule: Q01DX001 (ip), vehicle: Klucel (hydroxypropylcellulose) (HPC)",100 % of control
same,T/C,"dose: 50.0 mg/kg/injection, schedule: Q01DX001 (ip), vehicle: Klucel (hydroxypropylcellulose) (HPC)",100 % of control
same,T/C,"dose: 100.0 mg/kg/injection, schedule: Q01DX001 (ip), vehicle: Klucel (hydroxypropylcellulose) (HPC)",100 % of control and 96 % of control
CCCCC/C=C/C(=O)OC,T/C,[1],100 % of control
same,T/C,[2],100 % of control
same,T/C,"dose: 400.0 mg/kg/injection, schedule: Q04DX002 (ip), vehicle: saline with Tween-80",100 % of control
O=S(=O)(CCCl)c1ccc2ccccc2c1,T/C,"dose: 12.5 mg/kg/injection, schedule: Q01DX009 (ip), vehicle: Klucel (hydroxypropylcellulose) (HPC)",118 % of control and 90 % of control
same,T/C,"dose: 25.0 mg/kg/injection, schedule: Q01DX009 (ip), vehicle: Klucel (hydroxypropylcellulose) (HPC)",114 % of control
same,T/C,"dose: 50.0 mg/kg/injection, schedule: Q01DX009 (ip), vehicle: Klucel (hydroxypropylcellulose) (HPC)",106 % of control and 117 % of control
O=C(O)C(Oc1nc(=S)[nH]c(=S)[nH]1)(c1ccc(Cl)cc1)c1ccc(Cl)cc1,T/C,[3],103 % of control
same,T/C,[4],101 % of control
same,T/C,[5],103 % of control
O=C(Nc1nccs1)C(F)(F)F,T/C,"dose: 50.0 mg/kg/injection, schedule: Q01DX009 (ip), vehicle: saline with Tween-80",104 % of control
same,T/C,[6],104 % of control
same,T/C,[7],99 % of control
same,T/C,[8],108 % of control
CC1CN(C(=O)Nc2ccc(Cl)c(Cl)c2)CC(C)O1 (configuration not stated),T/C,[9],100 % of control
same,T/C,[10],98 % of control
same,T/C,[11],86 % of control
same,T/C,[7],100 % of control
COc1ccc(/C=N\N=C(/[O-])c2ccccc2O)cc1.COc1ccc(/C=N\N=C(/[O-])c2ccccc2O)cc1.[Ni+2],T/C,[12],93 % of control
same,T/C,[1],86 % of control
same,T/C,[2],88 % of control
COC(=O)C1C2C(C)CC3(CC12C)OCCO3 (configuration not stated),T/C,[6],91 % of control
same,T/C,[7],91 % of control
same,T/C,[8],91 % of control
COc1ccccc1/C(=N/[N+](C)(C)C)C(C)C,T/C,"dose: 6.25 mg/kg/injection, schedule: Q04DX002 (ip), vehicle: saline",100 % of control
same,T/C,"dose: 12.5 mg/kg/injection, schedule: Q04DX002 (ip), vehicle: saline",100 % of control
same,T/C,"dose: 25.0 mg/kg/injection, schedule: Q04DX002 (ip), vehicle: saline",93 % of control
C=CC(=O)N1CCCC1C(=O)O (configuration not stated),T/C,[13],100 % of control
same,T/C,[14],109 % of control
same,T/C,[15],100 % of control
COC(=O)NC(=O)CNc1ncc([N+](=O)[O-])s1,T/C,"dose: 100.0 mg/kg/injection, schedule: Q01DX001 (ip), vehicle: saline",107 % of control
same,T/C,"dose: 200.0 mg/kg/injection, schedule: Q01DX001 (ip), vehicle: saline",107 % of control
same,T/C,"dose: 400.0 mg/kg/injection, schedule: Q01DX001 (ip), vehicle: saline",88 % of control
Cc1ccc(=O)c2ccsc2c1,T/C,[16],105 % of control
same,T/C,[17],94 % of control
CC(=O)OCCNc1n[nH]c(=O)c2cnccc12,T/C,"dose: 30.0 mg/kg/injection, schedule: Q01DX005 (ip), vehicle: saline with Tween-80",110 % of control
same,T/C,[3],104 % of control
same,T/C,[4],101 % of control
same,T/C,[5],103 % of control
CCCCCCCCCCCCCCCc1ccc(OC)cc1,T/C,"dose: 7.5 mg/kg/injection, schedule: Q01DX009 (ip), vehicle: saline with Tween-80",90 % of control
same,T/C,"dose: 15.0 mg/kg/injection, schedule: Q01DX009 (ip), vehicle: saline with Tween-80",94 % of control
same,T/C,"dose: 30.0 mg/kg/injection, schedule: Q01DX009 (ip), vehicle: saline with Tween-80",104 % of control
COC1=NCc2ccccc2C2(OC)C(C)(C)C12C#N (configuration not stated),T/C,[18],96 % of control
same,T/C,[19],99 % of control
same,T/C,"dose: 200.0 mg/kg/injection, schedule: Q01DX005 (ip), vehicle: saline with Tween-80",101 % of control
CCOC(=O)C(CC)CO (configuration not stated),T/C,[13],101 % of control
same,T/C,[14],100 % of control
same,T/C,[15],101 % of control
O=[N+]([O-])c1ccc2nc(CC(O)(C(F)(F)F)C(F)(F)F)ccc2c1,T/C,[6],115 % of control
same,T/C,[7],90 % of control
same,T/C,[8],95 % of control
C/[N+]([O-])=C/c1ccccc1,T/C,[16],104 % of control
same,T/C,[17],106 % of control
same,T/C,"dose: 400.0 mg/kg/injection, schedule: Q04DX003 (ip), vehicle: Klucel (hydroxypropylcellulose) (HPC)",108 % of control
[N-]=[N+]=NC(=O)Nc1cccc(C(F)(F)F)c1,T/C,"dose: 15.0 mg/kg/injection, schedule: Q01DX005 (ip), vehicle: Klucel + Tween-80",103 % of control
same,T/C,"dose: 30.0 mg/kg/injection, schedule: Q01DX005 (ip), vehicle: Klucel + Tween-80",96 % of control
same,T/C,"dose: 60.0 mg/kg/injection, schedule: Q01DX005 (ip), vehicle: Klucel + Tween-80",100 % of control and 93 % of control
Cc1cc(C)n2nc3c4ccsc4ncc3c2n1,T/C,"dose: 25.0 mg/kg/injection, schedule: Q04DX002 (ip), vehicle: saline with Tween-80",105 % of control and 95 % of control
same,T/C,[12],99 % of control and 105 % of control
same,T/C,[1],116 % of control and 118 % of control and 119 % of control
CC(C#N)(C#N)N=Nc1ccc(Br)cc1,T/C,[18],106 % of control
same,T/C,[19],105 % of control
COC(=O)CNP(=O)(NCC(=O)OC)N(CCCl)CCCl,T/C,"dose: 30.0 mg/kg/injection, schedule: Q01DX005 (ip), vehicle: saline",102 % of control
same,T/C,"dose: 60.0 mg/kg/injection, schedule: Q01DX005 (ip), vehicle: saline",115 % of control
same,T/C,"dose: 120.0 mg/kg/injection, schedule: Q01DX005 (ip), vehicle: saline",153 % of control and 161 % of control
same,T/C,"dose: 240.0 mg/kg/injection, schedule: Q01DX005 (ip), vehicle: saline",161 % of control and 238 % of control
CCN=NNc1ccc([N+](=O)[O-])cc1,T/C,"dose: 12.5 mg/kg/injection, schedule: Q01DX009 (ip), vehicle: distilled water + Tween-80",95 % of control
same,T/C,"dose: 25.0 mg/kg/injection, schedule: Q01DX009 (ip), vehicle: distilled water + Tween-80",100 % of control
same,T/C,"dose: 50.0 mg/kg/injection, schedule: Q01DX009 (ip), vehicle: distilled water + Tween-80",105 % of control
same,T/C,"dose: 100.0 mg/kg/injection, schedule: Q01DX009 (ip), vehicle: distilled water + Tween-80",100 % of control
same,T/C,"dose: 200.0 mg/kg/injection, schedule: Q01DX009 (ip), vehicle: distilled water + Tween-80",112 % of control
CN1CCN2c3ccccc3Cc3ccccc3C2C1 (configuration not stated),T/C,[9],90 % of control
same,T/C,[10],94 % of control
same,T/C,[11],105 % of control and 107 % of control
same,T/C,[13],118 % of control and 119 % of control
CC(C(O)c1ccc2cc(Br)c3ccccc3c2c1)N(C)C (configuration not stated),T/C,[18],100 % of control
same,T/C,[19],91 % of control
Cc1ccccc1NC(=O)C1C(=O)N(c2ccccc2C)C(=O)/C1=N/O (configuration not stated),T/C,[3],99 % of control
same,T/C,[4],97 % of control
same,T/C,[5],94 % of control
